# Measurements taken from ChEMBL document CHEMBL3352739, “Comparative in vivo evaluation of polyalkoxy substituted 4H-chromenes and oxa-podophyllotoxins as microtubule destabilizing agents in the phenotypic sea urchin embryo assay” (2014).
# How the values were obtained:
# Paracentrotus lividus [1] = assay: Antimitotic microtubule destabilizing activity in Paracentrotus lividus L embryos assessed as induction of cleavage arrest
# Paracentrotus lividus [2] = assay: Antimitotic microtubule destabilizing activity in Paracentrotus lividus L embryos assessed as induction of cleavage alteration
# [3] = Growth inhibition of human H1299 cells after 48 hrs by sulforhodamine B assay; assay type: functional; settings: NCI-H1299, 48 h
# Paracentrotus lividus [4] = assay: Antimitotic microtubule destabilizing activity in Paracentrotus lividus L embryos assessed as induction of embryo spinning
# ZR-75-1 = assay: Growth inhibition of human ZR-75-1 cells after 48 hrs by sulforhodamine B assay; assay type: functional; settings: ZR-75-1, 48 h
# T47D = assay: Growth inhibition of human T47D cells after 48 hrs by sulforhodamine B assay; assay type: functional
# MDA-MB-468 = assay: Growth inhibition of human MDA-MB-468 cells after 48 hrs by sulforhodamine B assay; assay type: functional; settings: MDA-MB-468, 48 h
# [5] = Growth inhibition of human Hs 578T cells after 48 hrs by sulforhodamine B assay; assay type: functional
# HT-29 = assay: Growth inhibition of human HT-29 cells after 48 hrs by sulforhodamine B assay; assay type: functional; settings: HT-29, 48 h
# [6] = Growth inhibition of human PC3 cells after 48 hrs by sulforhodamine B assay; assay type: functional; settings: PC-3, 48 h
# NCI-H460 = assay: Growth inhibition of human NCI-H460 cells after 48 hrs by sulforhodamine B assay; assay type: functional; settings: NCI-H460, 48 h
# [7] = Growth inhibition of human UACC62 cells after 48 hrs by sulforhodamine B assay; assay type: functional; settings: UACC-62, 48 h
# [8] = Growth inhibition of human HCC2998 cells after 48 hrs by sulforhodamine B assay; assay type: functional; settings: HCC 2998, 48 h
# SK-MEL-5 = assay: Growth inhibition of human SK-MEL-5 cells after 48 hrs by sulforhodamine B assay; assay type: functional; settings: SK-MEL-5, 48 h
# [9] = Growth inhibition of human OVCAR8 cells after 48 hrs by sulforhodamine B assay; assay type: functional; settings: OVCAR-8, 48 h
# [10] = Growth inhibition of human SF295 cells after 48 hrs by sulforhodamine B assay; assay type: functional; settings: SF-295, 48 h
# SNB-75 = assay: Growth inhibition of human SNB75 cells after 48 hrs by sulforhodamine B assay; assay type: functional; settings: SNB-75, 48 h
# A549 = assay: Growth inhibition of human A549/ATCC cells after 48 hrs by sulforhodamine B assay; assay type: functional; settings: A549, 48 h
# HOP-62 = assay: Growth inhibition of human HOP62 cells after 48 hrs by sulforhodamine B assay; assay type: functional; settings: HOP-62, 48 h
# [11] = Growth inhibition of human RPMI8226 cells after 48 hrs by sulforhodamine B assay; assay type: functional; settings: RPMI-8226, 48 h
# SR = assay: Growth inhibition of human SR cells after 48 hrs by sulforhodamine B assay; assay type: functional
# SF-268 = assay: Growth inhibition of human SF268 cells after 48 hrs by sulforhodamine B assay; assay type: functional; settings: SF-268, 48 h
# NCI-H322M = assay: Growth inhibition of human NCI-H322M cells after 48 hrs by sulforhodamine B assay; assay type: functional
# MDA-MB-435 = assay: Growth inhibition of human MDA-MB-435 cells after 48 hrs by sulforhodamine B assay; assay type: functional; settings: MDA-MB-435, 48 h
# [12] = Growth inhibition of human OVCAR3 cells after 48 hrs by sulforhodamine B assay; assay type: functional; settings: OVCAR-3, 48 h
# NCI-H226 = assay: Growth inhibition of human NCI-H226 cells after 48 hrs by sulforhodamine B assay; assay type: functional; settings: NCI-H226, 48 h
# KM12 = assay: Growth inhibition of human KM12 cells after 48 hrs by sulforhodamine B assay; assay type: functional; settings: KM12, 48 h
# SNB-19 = assay: Growth inhibition of human SNB19 cells after 48 hrs by sulforhodamine B assay; assay type: functional; settings: SNB-19, 48 h
# [13] = Cytotoxicity against human NCI60 cells; assay type: functional
# [14] = Growth inhibition of human UACC257 cells after 48 hrs by sulforhodamine B assay; assay type: functional; settings: UACC-257, 48 h
# A498 = assay: Growth inhibition of human A498 cells after 48 hrs by sulforhodamine B assay; assay type: functional; settings: A498, 48 h
# U-251 = assay: Growth inhibition of human U251 cells after 48 hrs by sulforhodamine B assay; assay type: functional; settings: U-251, 48 h
# IGROV-1 = assay: Growth inhibition of human IGROV1 cells after 48 hrs by sulforhodamine B assay; assay type: functional; settings: IGROV-1, 48 h
# DU-145 = assay: Growth inhibition of human DU145 cells after 48 hrs by sulforhodamine B assay; assay type: functional; settings: DU-145, 48 h
# CCRF-CEM = assay: Growth inhibition of human CCRF-CEM cells after 48 hrs by sulforhodamine B assay; assay type: functional
# HL-60(TB) = assay: Growth inhibition of human HL-60(TB) cells after 48 hrs by sulforhodamine B assay; assay type: functional; settings: HL-60, 48 h
# [15] = Growth inhibition of human HCT116 cells after 48 hrs by sulforhodamine B assay; assay type: functional; settings: HCT-116, 48 h
# MCF7 = assay: Growth inhibition of human MCF7 cells after 48 hrs by sulforhodamine B assay; assay type: functional; settings: MCF7, 48 h
# [16] = Growth inhibition of human NCI-ADR-RES cells after 48 hrs by sulforhodamine B assay; assay type: functional
# Malme-3M = assay: Growth inhibition of human MALME-3M cells after 48 hrs by sulforhodamine B assay; assay type: functional
# CAKI-1 = assay: Growth inhibition of human CAKI-1 cells after 48 hrs by sulforhodamine B assay; assay type: functional; settings: CAKI-1, 48 h
# SK-MEL-28 = assay: Growth inhibition of human SK-MEL-28 cells after 48 hrs by sulforhodamine B assay; assay type: functional; settings: SK-MEL-28, 48 h
# [17] = Growth inhibition of human EKVX cells after 48 hrs by sulforhodamine B assay; assay type: functional
# [18] = Growth inhibition of human HCT15 cells after 48 hrs by sulforhodamine B assay; assay type: functional; settings: HCT-15, 48 h
# NCI-H23 = assay: Growth inhibition of human NCI-H23 cells after 48 hrs by sulforhodamine B assay; assay type: functional; settings: NCI-H23, 48 h
# [19] = Growth inhibition of human UO31 cells after 48 hrs by sulforhodamine B assay; assay type: functional; settings: UO-31, 48 h
# [20] = Growth inhibition of human COLO205 cells after 48 hrs by sulforhodamine B assay; assay type: functional; settings: COLO 205, 48 h
# [21] = Growth inhibition of human SF539 cells after 48 hrs by sulforhodamine B assay; assay type: functional; settings: SF-539, 48 h
# 786-0 = assay: Growth inhibition of human 786-0 cells after 48 hrs by sulforhodamine B assay; assay type: functional; settings: 786-0, 48 h
# SK-OV-3 = assay: Growth inhibition of human SKOV3 cells after 48 hrs by sulforhodamine B assay; assay type: functional; settings: SK-OV-3, 48 h
# [22] = Growth inhibition of human OVCAR5 cells after 48 hrs by sulforhodamine B assay; assay type: functional; settings: OVCAR-5, 48 h
# [23] = Growth inhibition of human MOLT4 cells after 48 hrs by sulforhodamine B assay; assay type: functional; settings: MOLT-4, 48 h
# TK-10 = assay: Growth inhibition of human TK10 cells after 48 hrs by sulforhodamine B assay; assay type: functional; settings: TK-10, 48 h
# SW-620 = assay: Growth inhibition of human SW620 cells after 48 hrs by sulforhodamine B assay; assay type: functional; settings: SW-620, 48 h
# [24] = Growth inhibition of human RXF393 cells after 48 hrs by sulforhodamine B assay; assay type: functional; settings: RXF 393, 48 h
# [25] = Growth inhibition of human LOXIMVI cells after 48 hrs by sulforhodamine B assay; assay type: functional; settings: LOX IMVI
# [26] = Growth inhibition of human OVCAR4 cells after 48 hrs by sulforhodamine B assay; assay type: functional; settings: OVCAR-4, 48 h
# SK-MEL-2 = assay: Growth inhibition of human SK-MEL-2 cells after 48 hrs by sulforhodamine B assay; assay type: functional; settings: SK-MEL-2, 48 h
# NCI-H522 = assay: Growth inhibition of human NCI-H522 cells after 48 hrs by sulforhodamine B assay; assay type: functional; settings: NCI-H522, 48 h
# [27] = Growth inhibition of human BT549 cells after 48 hrs by sulforhodamine B assay; assay type: functional; settings: BT-549, 48 h
# MDA-MB-231 = assay: Growth inhibition of human MDA-MB-231 cells after 48 hrs by sulforhodamine B assay; assay type: functional; settings: MDA-MB-231, 48 h
# SN12C = assay: Growth inhibition of human SN12C cells after 48 hrs by sulforhodamine B assay; assay type: functional
# M14 = assay: Growth inhibition of human M14 cells after 48 hrs by sulforhodamine B assay; assay type: functional; settings: M14, 48 h
compound,measurement,setting,value
COc1cc(OC)cc(C2C(C#N)=C(N)Oc3cc(OC)ccc32)c1 (configuration not stated),EC,Paracentrotus lividus [1],0.005 µM
same,EC,Paracentrotus lividus [2],0.0005 µM
same,GI50,[3],32 nM
same,EC,Paracentrotus lividus [4],0.02 µM
same,GI50,ZR-75-1,9 nM
same,GI50,T47D,14 nM
COc1cccc(C2C(C#N)=C(N)Oc3cc4c(cc32)OCO4)c1 (configuration not stated),GI50,MDA-MB-468,25.4 nM
same,GI50,[5],31.6 nM
same,GI50,HT-29,46.2 nM
same,GI50,[6],65.6 nM
same,GI50,NCI-H460,44 nM
same,GI50,[7],43.4 nM
same,GI50,[8],101 nM
same,GI50,SK-MEL-5,37.8 nM
same,GI50,[9],97.1 nM
same,GI50,[10],34.4 nM
same,GI50,SNB-75,23.8 nM
same,GI50,A549,62.5 nM
same,GI50,HOP-62,43.2 nM
same,GI50,[11],105 nM
same,GI50,SR,30.2 nM
same,GI50,SF-268,54.1 nM
same,GI50,NCI-H322M,2110 nM
same,GI50,MDA-MB-435,20.3 nM
same,GI50,[12],25.6 nM
same,GI50,NCI-H226,45.5 nM
same,GI50,KM12,36.5 nM
same,GI50,SNB-19,54.3 nM
same,GI50,[13],65 nM
same,GI50,[14],47.1 nM
same,GI50,A498,29.1 nM
same,EC,Paracentrotus lividus [1],0.05 µM
same,GI50,U-251,46.2 nM
same,GI50,IGROV-1,97.3 nM
same,EC,Paracentrotus lividus [2],0.005 µM
same,GI50,DU-145,84.5 nM
same,GI50,CCRF-CEM,36 nM
same,GI50,HL-60(TB),24.2 nM
same,GI50,[15],49.8 nM
same,GI50,MCF7,36.4 nM
same,GI50,[16],30.2 nM
same,GI50,Malme-3M,50.1 nM
same,GI50,CAKI-1,40.9 nM
same,GI50,SK-MEL-28,70 nM
same,GI50,[17],259 nM
same,GI50,[18],44.7 nM
same,GI50,NCI-H23,97.7 nM
same,GI50,[19],58.9 nM
same,GI50,[20],43.2 nM
same,GI50,[21],34.4 nM
same,GI50,786-0,58.7 nM
same,GI50,SK-OV-3,36.2 nM
same,GI50,[22],447 nM
same,GI50,[23],6.17 nM
same,GI50,TK-10,6010 nM
same,GI50,SW-620,36.5 nM
same,GI50,[24],29 nM
same,GI50,[25],46 nM
same,EC,Paracentrotus lividus [4],0.2 µM
same,GI50,[26],2510 nM
same,GI50,T47D,50.2 nM
same,GI50,SK-MEL-2,30.1 nM
same,GI50,NCI-H522,23.1 nM
same,GI50,[27],87.4 nM
same,GI50,MDA-MB-231,2170 nM
same,GI50,SN12C,79.2 nM
same,GI50,M14,54.9 nM
